Laboratory results as given in patent publication US7495108B2, “Imidazoline derivatives having CB1-antagonistic activity” (Solvay Pharmaceuticals, B.V., priority 2004, dated 2009).

Key:
[1] = target: human cannabinoid CB1 receptor (Homo sapiens, UniProt P21554); assay: In vitro affinity for cannabinoid-CB1 receptors ([3H]CP-55,940 radioligand binding, CHO cell membranes); details: [3H]CP-55,940 as radioligand, read-out: In vitro affinity pKi value (converted)
Protocol: In vitro Affinity for Cannabinoid-CB1 Receptors
The affinity of the compounds of the invention for cannabinoid CB1 receptors can be determined using membrane preparations of Chinese hamster ovary (CHO) cells in which the human cannabinoid CB1 receptor is stably transfected in conjunction with [^3H]CP-55,940 as radioligand. After incubation of a freshly prepared cell membrane preparation with the [^3H]-ligand, with or without addition of compounds of the invention, separation of bound and free ligand is performed by filtration over glassfiber filters. Radioactivity on the filter is measured by liquid scintillation counting.

[2] = target: human CB1 receptor (Homo sapiens, UniProt P21554); assay: In vitro cannabinoid-CB1 receptor antagonism (WIN 55,212-2-induced [3H]-arachidonic acid release in CHO cells); assay type: cell-based; details: antagonism of WIN 55,212-2-induced [3H]-arachidonic acid release, read-out: In vitro antagonism pA2-value (arachidonic acid release) (converted)
Chain of human CB1 receptor (P21554 whole entry): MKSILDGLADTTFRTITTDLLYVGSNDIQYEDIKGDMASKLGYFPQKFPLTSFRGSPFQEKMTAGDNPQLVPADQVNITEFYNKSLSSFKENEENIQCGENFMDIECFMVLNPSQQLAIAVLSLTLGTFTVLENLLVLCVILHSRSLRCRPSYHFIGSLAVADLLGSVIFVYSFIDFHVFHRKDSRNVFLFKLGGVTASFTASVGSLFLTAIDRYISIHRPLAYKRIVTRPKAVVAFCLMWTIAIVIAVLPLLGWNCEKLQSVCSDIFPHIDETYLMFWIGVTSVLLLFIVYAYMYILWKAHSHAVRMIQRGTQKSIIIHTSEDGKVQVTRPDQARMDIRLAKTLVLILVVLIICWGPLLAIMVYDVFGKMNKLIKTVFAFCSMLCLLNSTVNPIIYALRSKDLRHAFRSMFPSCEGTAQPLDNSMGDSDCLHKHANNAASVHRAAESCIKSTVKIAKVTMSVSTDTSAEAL
Protocol: In vitro Cannabinoid-CB1 Receptor Antagonism
In vitro CB1 receptor antagonism can be assessed with the human CB1 receptor cloned in Chinese hamster ovary (CHO) cells. CHO cells are grown in a Dulbecco's Modified Eagle's medium (DMEM) culture medium, supplemented with 10% heat-inactivated fetal calf serum. Medium is aspirated and replaced by DMEM, without fetal calf serum, but containing [^3H]-arachidonic acid and incubated overnight in a cell culture stove (5% CO2/95% air; 37° C.; water-saturated atmosphere). During this period [^3H]-arachidonic acid is incorporated in membrane phospholipids. On the test day, medium is aspirated and cells are washed three times using 0.5 mL DMEM, containing 0.2% bovine serum albumin (BSA). Stimulation of the CB1 receptor by WIN 55,212-2 leads to activation of PLA2 followed by release of [^3H]-arachidonic acid into the medium. This WIN 55,212-2-induced release is concentration-dependently antagonized by CB1 receptor antagonists.

Chain of human cannabinoid CB1 receptor (P21554 whole entry): as above

Ki [1] [nM]	melting point [°C]	Kb [2] [nM]	SMILES
100			O=C(NC1CC2CCC1C2)C1CN(c2ccc(Cl)cc2)C(c2ccc(Cl)cc2Cl)=N1 (single isomer, unassigned) [Compound 2, 1-(4-chlorophenyl)-2-(2,4-dichlorophenyl)-N-(exo-2-bicyclo[2.2.1]heptyl)-4,5-dihydro-1H-imidazole-4-carboxamide]
	136 to 139		CN(C)S(=O)(=O)/N=C(\N)C1CN(c2ccccc2)C(c2ccc(Cl)cc2)=N1 (centres unmarked) [Compound 7, 2-(4-Chlorophenyl)-N-(dimethylaminosulfonyl)-1-phenyl-4,5-dihydro-1H-imidazole-4-carboxamidine]
158	146 to 147		CN(C)S(=O)(=O)/N=C(\N)C1CN(c2ccc(Cl)cc2)C(c2ccc(Cl)cc2Cl)=N1 (centres unmarked) [Compound 8, 1-(4-chlorophenyl)-2-(2,4-dichlorophenyl)-N-(dimethylaminosul-fonyl)-4,5-dihydro-1H-imidazole-4-carboxamidine]
	172 to 175		N/C(=N\S(=O)(=O)c1ccc(F)cc1)C1CN(c2ccc(Cl)cc2)C(c2ccc(Cl)cc2Cl)=N1 (centres unmarked)

More lines, now with the values behind:

SMILES	Ki [1] [nM]	melting point [°C]	Kb [2] [nM]
O=C(NC1CC2CCC1C2)C1CN(c2ccc(Cl)cc2)C(c2ccc(Cl)cc2Cl)=N1 (single isomer, unassigned) [Compound 1, 1-(4-chlorophenyl)-2-(2,4-dichlorophenyl)-N-(exo-2-bicyclo[2.2.1]heptyl)-4,5-dihydro-1H-imidazole-4-carboxamide]	20		
N/C(=N\S(=O)(=O)c1ccc(Cl)cc1)C1CN(c2ccc(Cl)cc2)C(c2ccc(Cl)cc2Cl)=N1 (centres unmarked) [Compound 5, 1-(4-chlorophenyl)-2-(2,4-dichlorophenyl)-N-[(4-chlorophenyl)sulfonyl]-4,5-dihydro-1H-imidazole-4-carboxamidine]		165 to 166	
O=C(NN1CCCCC1)C1CN(c2ccc(Cl)cc2)C(c2ccc(Cl)cc2Cl)=N1 (centres unmarked) [Compound 3, 1-(4-chlorophenyl)-2-(2,4-dichlorophenyl)-N-(piperidin-1-yl)-4,5-dihydro-1H-imidazole-4-carboxamide]		113 to 116	
O=C(NC1CCCCC1)C1CN(c2ccc(Cl)cc2)C(c2ccc(Cl)cc2Cl)=N1 (centres unmarked) [Compound 4, 1-(4-Chlorophenyl)-2-(2,4-dichlorophenyl)-N-cyclohexyl4,5-dihydro-1H-imidazole-4-carboxamide]	100	127 to 129	20
